Activity calls are given as the source filed them. The calls are words filed in the database; no cut-off is given here.
Tested on: Mycobacterium tuberculosis
Assay: Antimicrobial activity against Mycobacterium bovis BCG up to 100 uM after 24 to 48 hrs by broth microdilution method
Format: functional, organism-based
Conditions: variant bovis BCG

O=C(N/N=C/c1cc(F)ccc1O)c1ccc2c3c(ccc2c1)N1Cc2c(ccc4cc(C(=O)N/N=C/c5cc(F)ccc5O)ccc24)N(C3)C1
Activity: inactive

O=C(N/N=C/c1nccc2ccccc12)c1ccc2c3c(ccc2c1)N1Cc2c(ccc4cc(C(=O)N/N=C/c5nccc6ccccc56)ccc24)N(C3)C1
Activity: inactive

COC(=O)c1ccc(O)c(/C=N/NC(=O)c2ccc3c4c(ccc3c2)N2Cc3c(ccc5cc(C(=O)N/N=C/c6cc(C(=O)OC)ccc6O)ccc35)N(C4)C2)c1
Activity: inactive

COc1cccnc1/C=N/NC(=O)c1ccc2c3c(ccc2c1)N1Cc2c(ccc4cc(C(=O)N/N=C/c5ncccc5OC)ccc24)N(C3)C1
Activity: inactive

O=C(N/N=C/c1ccccc1O)c1ccc2c3c(ccc2c1)N1Cc2c(ccc4cc(C(=O)N/N=C/c5ccccc5O)ccc24)N(C3)C1
Activity: inactive

COc1ccc(O)c(/C=N/NC(=O)c2ccc3c4c(ccc3c2)N2Cc3c(ccc5cc(C(=O)N/N=C/c6cc(OC)ccc6O)ccc35)N(C4)C2)c1
Activity: inactive

O=C(N/N=C/c1cc([N+](=O)[O-])ccc1O)c1ccc2c3c(ccc2c1)N1Cc2c(ccc4cc(C(=O)N/N=C/c5cc([N+](=O)[O-])ccc5O)ccc24)N(C3)C1
Activity: inactive

O=C(N/N=C/c1cc(O)ccc1O)c1ccc2c3c(ccc2c1)N1Cc2c(ccc4cc(C(=O)N/N=C/c5cc(O)ccc5O)ccc24)N(C3)C1
Activity: inactive

O=C(N/N=C/c1cc(Cl)ccc1O)c1ccc2c3c(ccc2c1)N1Cc2c(ccc4cc(C(=O)N/N=C/c5cc(Cl)ccc5O)ccc24)N(C3)C1
Activity: inactive

Cc1ccc(O)c(/C=N/NC(=O)c2ccc3c4c(ccc3c2)N2Cc3c(ccc5cc(C(=O)N/N=C/c6cc(C)ccc6O)ccc35)N(C4)C2)c1
Activity: inactive

O=C(NN=C(c1ccccn1)c1ccccn1)c1ccc2c3c(ccc2c1)N1Cc2c(ccc4cc(C(=O)NN=C(c5ccccn5)c5ccccn5)ccc24)N(C3)C1
Activity: inactive

Reference: ChEMBL document CHEMBL3400013, “Synthesis and biological activity evaluation of hydrazone derivatives based on a Tröger's base skeleton” (Bioorg Med Chem, 2015)
